Measurements from paper PMC2691174 (Cancer, 2009).
Like-named read-outs stand apart in the source and are kept apart here.

Assays:
[1] = system: patients with newly diagnosed glioblastoma (GBM); settings: radiotherapy plus temozolomide; cited from earlier work
[2] = for tmax Mean(Range): stratum A (no EIAEDs, N=14), imatinib 400 mg/day
[3] = system: PDGFRβ; settings: cited from earlier work
[4] = system: recurrent malignant glioma patients; assay: Phase I dose escalation: MTD, DLT and toxicity; settings: all patients, with imatinib and hydroxyurea
[5] = Plasma pharmacokinetics of vatalanib; assay type: in vivo, human; settings: for Tmax: human, plasma, oral, tmax Mean(Range)
[6] = Plasma pharmacokinetics of hydroxyurea; settings: for AUC0−12 / 0−12 Mean(Range) / Cl/F Mean(Range) / Cmax/D Mean(Range) / t1/2 Mean(Range) / tmax Mean(Range): hydroxyurea 500 mg twice-a-day
[7] = system: recurrent GBM patients; settings: single agent; cited from earlier work
[8] = stratum B (on EIAEDs, N=8), day 7 (vatalanib alone, steady state)
[9] = stratum B (on EIAEDs, N=8), day 35 (with imatinib and hydroxyurea)
[10] = stratum A (no EIAEDs, N=15), day 7 (vatalanib alone, steady state)
[11] = stratum A (no EIAEDs, N=15), day 35 (with imatinib and hydroxyurea)
[12] = stratum A (no EIAEDs, N=14), day 8 of cycle 1
[13] = stratum A (no EIAEDs, N=14), day 35 of cycle 1
[14] = stratum B (on EIAEDs, N=6), day 8 of cycle 1
[15] = stratum B (on EIAEDs, N=6), day 35 of cycle 1

Cn1nnc2c(C(N)=O)ncn2c1=O [temozolomide]
median progression-free survival (PFS) [1]: 6.9 months

Cc1ccc(NC(=O)c2ccc(CN3CCNCC3)cc2)cc1Nc1nccc(-c2cccnc2)n1 [CGP74588]
tmax Mean(Range) ([2]; day 8 of cycle 1): 3.43(2.00−6.00) h | tmax Mean(Range) ([2]; day 35 of cycle 1): 3.57(1.00−8.00) h

Clc1ccc(Nc2nnc(Cc3ccncc3)c3ccccc23)cc1 [vatalanib]
PDGFRβ IC50 relative to that of imatinib [3]: approximately twice | recommended vatalanib dose ([4]; irrespective of EIAEDs): 1000 mg twice-a-day | MTD of vatalanib ([4]; continuous daily schedule): 1000 mg twice-a-day | effect of vatalanib dose on vatalanib pharmacokinetic parameters ([5]; 500 to 1250 mg twice daily): no significant effect | decrease of vatalanib Cmax/D by use of EIAEDs ([5]; day 7): approximately 3 fold | effect of EIAEDs on vatalanib plasma t1/2 ([5]; day 7): not significantly affecting | increase of vatalanib CL/F by use of EIAEDs ([5]; day 7): approximately 3 fold | increase of vatalanib V/F by use of EIAEDs ([5]; day 7): more than 3 fold | Tmax [5, 8]: 1.79 h | Tmax [5, 9]: 2.13 h | AUC0−12 / 0−12 Mean(Range) [5, 10]: 11.1(2.23−16.1) ng/mL*h/mg | Cl/F Mean(Range) [5, 10]: 122(62.0−448) L/h | Cmax/D Mean(Range) [5, 10]: 3.12(0.72−5.03) ng/mL/mg | AUC0−12 / 0−12 Mean(Range) [5, 11]: 10.4(3.28−25.5) ng/mL*h/mg | Cl/F Mean(Range) [5, 11]: 137(39.3−305) L/h | Cmax/D Mean(Range) [5, 11]: 2.82(0.82−7.38) ng/mL/mg | AUC0−12 / 0−12 Mean(Range) [5, 8]: 4.51(1.31−12.1) ng/mL*h/mg | Cl/F Mean(Range) [5, 8]: 377(82.3−765) L/h | Cmax/D Mean(Range) [5, 8]: 1.15(0.40−2.46) ng/mL/mg | AUC0−12 / 0−12 Mean(Range) [5, 9]: 6.75(0.73−17.7) ng/mL*h/mg | Cl/F Mean(Range) [5, 9]: 368(56.5−1371) L/h | Cmax/D Mean(Range) [5, 9]: 1.91(0.16−6.52) ng/mL/mg

NC(=O)NO [Hydroxyurea]
effect of EIAEDs or time on hydroxyurea pharmacokinetics ([6]; in vivo): no relevant effect | AUC0−12 / 0−12 Mean(Range) [6, 12]: 50.4(9.50−91.1) ng/mL*h/mg | Cl/F Mean(Range) [6, 12]: 15.2(5.50−52.5) L/h | Cmax/D Mean(Range) [6, 12]: 18.5(6.80−29.6) ng/mL/mg | t1/2 Mean(Range) [6, 12]: 4.84(1.60−12.5) h | tmax Mean(Range) [6, 12]: 1.29(0.50−2.00) h | AUC0−12 / 0−12 Mean(Range) [6, 13]: 41.7(13.0−84.5) ng/mL*h/mg | Cl/F Mean(Range) [6, 13]: 15.4(5.90−38.4) L/h | Cmax/D Mean(Range) [6, 13]: 19.4(5.60−32.6) ng/mL/mg | t1/2 Mean(Range) [6, 13]: 3.29(1.40−6.80) h | tmax Mean(Range) [6, 13]: 1.30(0.50−4.00) h | AUC0−12 / 0−12 Mean(Range) [6, 14]: 37.38(18.1−60.4) ng/mL*h/mg | Cl/F Mean(Range) [6, 14]: 16.4(8.3−27.6) L/h | Cmax/D Mean(Range) [6, 14]: 16.5(7.60−35.0) ng/mL/mg | t1/2 Mean(Range) [6, 14]: 3.5(2.70−5.40) h | tmax Mean(Range) [6, 14]: 1.80(0.50−4.00) h | AUC0−12 / 0−12 Mean(Range) [6, 15]: 41.4(17.0−70.1) ng/mL*h/mg | Cl/F Mean(Range) [6, 15]: 15.4(7.10−29.4) L/h | Cmax/D Mean(Range) [6, 15]: 19.0(7.80−31.4) ng/mL/mg | t1/2 Mean(Range) [6, 15]: 7.12(2.50−21.5) h | tmax Mean(Range) [6, 15]: 0.90(0.50−1.50) h

COc1cc2c(Oc3ccc4[nH]c(C)cc4c3F)ncnc2cc1OCCCN1CCCC1 [cedarinib]
median PFS [7]: 16 weeks | radiographic response rate [7]: 50%

Cc1ccc(NC(=O)c2ccc(CN3CCN(C)CC3)cc2)cc1Nc1nccc(-c2cccnc2)n1 [Imatinib]
effect of hydroxyurea on imatinib pharmacokinetics ([2]; fully apparent at day 35, more pronounced in patients taking EIAEDs): increase in Cmax/D and decreases in CL/F and V/F
